Measurements reported in publication PMC11736000, “Structural and functional analysis of a bile salt hydrolase from the bison microbiome” (The Journal of Biological Chemistry, 2024).

Target: T1, bile salt hydrolase from Arthrobacter citreus EINP1 (BSHAc) (Arthrobacter citreus, UniProt A0ABZ2ZT44)
T1 construct: gene bsh; C-terminally hexahistidine-tagged recombinant BSHAc; NCBI WP_342023006.1
Assay: […] Å crystal structure of the covalent complex; time-dependent inactivation kinetics of the purified enzyme (kinact/KI […] ^-1s^-1)
Type: biochemical

T1 sequence (A0ABZ2ZT44 entry or part of it): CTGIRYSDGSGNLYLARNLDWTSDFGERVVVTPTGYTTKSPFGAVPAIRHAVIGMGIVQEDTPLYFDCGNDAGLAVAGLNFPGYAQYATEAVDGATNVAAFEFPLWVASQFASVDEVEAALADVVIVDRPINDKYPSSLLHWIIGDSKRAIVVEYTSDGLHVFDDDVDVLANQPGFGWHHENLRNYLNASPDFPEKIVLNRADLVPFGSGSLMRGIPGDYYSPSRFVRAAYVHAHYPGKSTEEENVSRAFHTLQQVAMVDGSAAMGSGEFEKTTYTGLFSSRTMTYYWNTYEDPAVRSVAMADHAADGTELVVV

SMILES: C[C@H](CCC(=O)CF)[C@H]1CC[C@H]2[C@@H]3CC[C@@H]4C[C@H](OS(=O)(=O)O)CC[C@]4(C)[C@H]3CC[C@]12C [AAA-10]
- KI (inactivation): 23 µM
